Patent US11771735B2, “Composition for improving or preventing nonalcoholic fatty liver” (KOHJIN LIFE SCIENCES CO., LTD., priority 2015, dated 2023)

How the values were obtained:
[1] = tested on: Mice (C57/B6J) fed with high-fat food; conditions: 20 weeks old
Description: Mice (C57/B6J, 8 weeks old male) were divided into 4 groups (5 animals each), and the first group (DB) was freely fed with ordinary food (CertifiedDiet “MF” manufactured by Oriental Yeast Co., ltd.). The second group (HFD) was freely fed with high-fat food (High Fat Diet 32, manufactured by CLEA Japan, Inc.), […].
When the mouse was 20 weeks old, the body weight, the liver weight, the serum aspartate aminotransferase (AST), the alanine aminotransferase (ALT), the serum triglyceride (TG), the free fatty acid value (FFA) and the total cholesterol value (T-cho) were measured.

[2] = tested on: subjects who had NAFLD in 31 IU/L or more of ALT; conditions: Case IDs 1 to 9 (group affected); at least one week after initiation; oral 300 mg per day
[3] = HFD6 (6 mg/kg/day) and HFD60 (60 mg/kg/day) groups in comparison to HFD group
[4] = high-fat food mice, glutathione 6 and 60 mg/kg/day in water

Compound: N[C@@H](CCC(=O)N[C@@H](CS)C(=O)NCC(=O)O)C(=O)O [glutathione]
- serum ALT [1, 3]: significant decrease
- serum AST [1, 3]: significant decrease
- serum FFA (free fatty acid value) [1, 3]: significant decrease
- serum T-cho (total cholesterol value) [1, 3]: significant decrease
- serum TG (triglyceride value) [1, 3]: significant decrease
- liver weight [1, 4]: the liver weight decreased dependently on the concentration
- ratio of liver weight/body weight [1, 4]: decrease of the body weight ratio was also recognized
- body weight ([1]; high-fat food mice, glutathione 6 or 60 mg/kg/day in water): decrease of the body weight was recognized
- improvement of ALT after the administration versus before administration (0 wk) [2]: ≥ 20%
